Experimental data: patent US7367933B2, “Screening of chemical compounds purified from biological sources” (Sequoia Sciences, Inc., priority 1999, dated 2008)

Experiments:
B16 melanoma = settings: previously reported for compounds from stem bark of Taxus baccata; cited from earlier work
[1] = tested on: MCF7 breast cancer, NCI-H460 lung cancer, and SF-268 CNS cancer; assay: NCI in vitro 3-cell-line anticancer panel (overall statement); assay type: cell-based; settings: NCI 3-cell-line panel
Method: (§1) In vitro cytotoxicity tests were conducted at the NCI using an in vitro 3-cell-line panel consisting of MCF7 breast cancer, NCI-H460 lung cancer, and SF-268 CNS cancer. Each cell line was inoculated and incubated in microtiter plates. After 24 hours test samples were added to a final assay concentration of 2 μg/mL and the culture was incubated for 48 hours. Results for each test sample were reported as the percentage of growth of the treated cells when compared to untreated controls. Compounds which reduced the growth of any one of the cell lines […] against standard were considered to be active.

NCI-H460 lung cancer = assay: NCI in vitro cytotoxicity test, 3-cell-line panel: NCI-H460; assay type: cell-based; settings: 2 μg/mL, 48 hours incubation; less than 32% = active
Method: as §1

MCF7 breast cancer = assay: NCI in vitro cytotoxicity test, 3-cell-line panel: MCF7; assay type: cell-based; settings: 2 μg/mL, 48 hours incubation; less than 32% = active
Method: as §1

SF-268 CNS cancer = assay: NCI in vitro cytotoxicity test, 3-cell-line panel: SF-268; assay type: cell-based; settings: 2 μg/mL, 48 hours incubation; less than 32% = active
Method: as §1

CCCCCC(=O)N[C@@H](c1ccccc1)[C@@H](O)C(=O)O[C@H]1C[C@@]2(O)[C@@H](OC(=O)c3ccccc3)[C@@H]3[C@]4(OC(C)=O)CO[C@@H]4C[C@H](O[C@@H]4OC[C@@H](O)[C@H](O)[C@H]4O)[C@@]3(C)C(=O)[C@H](O)C(=C1C)C2(C)C [7-(β-xylosyl)-10-deacetyltaxol C]
activity against B16 melanoma (in words) (B16 melanoma): potent activity
anticancer activity in the 3-cell-line anticancer panel (in words) [1]: active

CCCCCC(=O)N[C@@H](c1ccccc1)[C@@H](O)C(=O)O[C@H]1C[C@@]2(O)[C@@H](OC(=O)c3ccccc3)[C@@H]3[C@]4(OC(C)=O)CO[C@@H]4C[C@H](O[C@@H]4OC[C@@H](O)[C@H](O)[C@H]4O)[C@@]3(C)C(=O)[C@H](OC(C)=O)C(=C1C)C2(C)C [7-(β-xylosyl)-taxol C]
activity against B16 melanoma (in words) (B16 melanoma): potent activity
anticancer activity in the 3-cell-line anticancer panel (in words) [1]: active

CC(=O)O[C@H]1C(=O)[C@]2(C)[C@@H](O[C@@H]3OC[C@@H](O)[C@H](O)[C@H]3O)C[C@H]3OC[C@@]3(OC(C)=O)[C@H]2[C@H](OC(=O)c2ccccc2)[C@]2(O)C[C@H](OC(=O)[C@H](O)[C@@H](NC(=O)c3ccccc3)c3ccccc3)C(C)=C1C2(C)C [7-(β-xylosyl)-taxol]
activity against B16 melanoma (in words) (B16 melanoma): potent activity
anticancer activity in the 3-cell-line anticancer panel (in words) [1]: active

C/C=C(\C)C(=O)N[C@@H](c1ccccc1)[C@@H](O)C(=O)O[C@H]1C[C@@]2(O)[C@@H](OC(=O)c3ccccc3)[C@@H]3[C@]4(OC(C)=O)CO[C@@H]4C[C@H](O)[C@@]3(C)C(=O)[C@H](OC(C)=O)C(=C1C)C2(C)C [Cephalomanine]
H-460 Lung cancer, percentage of growth (One Dose Primary Anticancer Assay) (NCI-H460 lung cancer): 19%
MCF-7 Breast cancer, percentage of growth (One Dose Primary Anticancer Assay) (MCF7 breast cancer): 15%
SF-268 CNS cancer, percentage of growth (One Dose Primary Anticancer Assay) (SF-268 CNS cancer): 30%

CC(=O)O[C@H]1C(=O)[C@@]2(C)[C@H]([C@H](OC(=O)c3ccccc3)[C@]3(O)C[C@H](OC(=O)[C@H](O)[C@@H](NC(=O)c4ccccc4)c4ccccc4)C(C)=C1C3(C)C)[C@]1(OC(C)=O)CO[C@@H]1C[C@@H]2O [Paclitaxel]
H-460 Lung cancer, percentage of growth (One Dose Primary Anticancer Assay) (NCI-H460 lung cancer): 13%
MCF-7 Breast cancer, percentage of growth (One Dose Primary Anticancer Assay) (MCF7 breast cancer): 23%
SF-268 CNS cancer, percentage of growth (One Dose Primary Anticancer Assay) (SF-268 CNS cancer): 30%

CC(=O)O[C@H]1C(=O)[C@@]2(C)[C@H]([C@H](OC(=O)c3ccccc3)[C@]3(O)C[C@H](OC(=O)[C@H](O)[C@@H](NC(=O)c4ccccc4)c4ccccc4)C(C)=C1C3(C)C)[C@]1(OC(C)=O)CO[C@@H]1C[C@@H]2O [TX003-17, paclitaxel]
anticancer activity in the 3-cell-line anticancer panel (in words) [1]: exhibited activity in all three cell lines
H-460 Lung cancer, percentage of growth (One Dose Primary Anticancer Assay) (NCI-H460 lung cancer): 30%
MCF-7 Breast cancer, percentage of growth (One Dose Primary Anticancer Assay) (MCF7 breast cancer): 21%
SF-268 CNS cancer, percentage of growth (One Dose Primary Anticancer Assay) (SF-268 CNS cancer): 29%
